Laboratory results taken from paper PMC2866172 (Journal of medicinal chemistry, 2010).
Where two headings read alike, the source gives them in different places.

Assays:
[1] = humans, cited from earlier work
[2] = about 3 h after i.v. administration of 108.7 mg INH, [14C]INH tracer; cited from earlier work
[3] = PPB determination in pooled baboon plasma
[4] = mice, [14C]INH, 10 mg/kg s.c., cited from earlier work
[5] = patients with inflamed meninges, single 3 g oral dose; cited from earlier work
[6] = Brain PET imaging in anesthetized baboons; conditions: for Estimated concentration in whole brain, C30min / Concentration in whole brain, C30min: 30 min; for Estimated concentration in whole brain, C30min / Estimated concentration in whole brain, C60min / Estimated concentration in whole brain, C90min: signal assumed intact drug; for Estimated concentration in whole brain, C60min / Concentration in whole brain, C60min: 60 min; for Estimated concentration in whole brain, C90min / Concentration in whole brain, C90min: 90 min; for Concentration in whole brain, C30min / Concentration in whole brain, C60min / Concentration in whole brain, C90min: baboon
[7] = in vitro; conditions: monkey, plasma
[8] = monkeys, 6 h after i.v. administration of [14C]RIF; cited from earlier work
[9] = patients, 150 mg oral dose, cited from earlier work
[10] = Torso PET imaging in anesthetized baboons; conditions: for Calculated drug concentration in heart / Calculated drug concentration in kidney cortex / Calculated drug concentration in kidney medulla / Calculated drug concentration in liver / Calculated drug concentration in lung / Calculated drug concentration in plasma / Calculated drug concentration in gallbladder: 17 kg baboon; for Concentration in heart / Concentration in kidney cortex / Concentration in kidney medulla / Concentration in liver / Concentration in lung / Concentration in plasma / Concentration in gallbladder: baboon, i.v.
[11] = estimated from baboon weight, 20 mg/kg dose
[12] = 15 min, calculated assuming 20 mg/kg dose
[13] = 30 min, calculated assuming 20 mg/kg dose
[14] = 60 min, calculated assuming 20 mg/kg dose
[15] = 90 min, calculated assuming 20 mg/kg dose
[16] = estimated for 17 kg baboon, 10 mg/kg dose
[17] = 15 min, calculated assuming 10 mg/kg dose
[18] = 30 min, calculated assuming 10 mg/kg dose
[19] = 60 min, calculated assuming 10 mg/kg dose
[20] = 90 min, calculated assuming 10 mg/kg dose

Compound: NNC(=O)c1ccncc1 [INH, isoniazid]
- INH CSF concentration ([1]; 8.5 mg/kg oral dose, 2 h): 1.9 µg/mL
- INH CSF concentration ([1]; 108.7 mg oral dose, 1 h): 0.31 µg/mL
- INH concentration in surgically removed normal human lung [2]: 1.79 µg/g
- fraction unbound at 10 min ([3]; monkey, pooled plasma): 0.946
- INH concentration in brain ([4]; 30 min): 4.4 µg/g
- INH concentration in brain ([4]; 60 min): 3.2 µg/g

Compound: NC(=O)c1cnccn1 [PZA, pyrazinamide]
- CSF concentration of PZA [5]: 50 µg/mL
- PPB (value expressed as % of free fraction in plasma) ([3]; pooled baboon plasma, 10 min room temperature, % unbound): 91.32%
- Blood-brain barrier penetration ([6]; healthy baboons, i.v., TAC, AUC and image): excellent penetration

Compound: CO[C@H]1/C=C/O[C@@]2(C)Oc3c(C)c(O)c4c(O)c(c(/C=N/N5CCN(C)CC5)c(O)c4c3C2=O)NC(=O)/C(C)=C\C=C\[C@H](C)[C@H](O)[C@@H](C)[C@@H](O)[C@@H](C)[C@H](OC(C)=O)[C@@H]1C [RIF, rifampicin]
- fraction unbound at 10 min [7]: 0.273
- RIF concentration in heart [8]: 10.11 µg/g
- RIF concentration in kidney [8]: 14.69 µg/g
- RIF concentration in liver [8]: 60.41 µg/g
- RIF concentration in lung [8]: 8.32 µg/g
- RIF bile concentration ([9]; 3–5 h): up to 538.5 µg/ml
- RIF concentration in the liver [9]: 22 to 35 µg/mL

Compound: N[11C](=O)c1cnccn1 [[^11C]PZA]
- Estimated concentration in whole brain, C30min [6, 11]: 21.05 µg/mL
- Estimated concentration in whole brain, C60min [6, 11]: 15.74 µg/mL
- Estimated concentration in whole brain, C90min [6, 11]: 13.70 µg/mL
- Concentration in whole brain, C30min ([6]; i.v.): 0.00619 %ID/cc
- Concentration in whole brain, C60min ([6]; i.v.): 0.00463 %ID/cc
- Concentration in whole brain, C90min ([6]; i.v.): 0.00403 %ID/cc
- Calculated drug concentration in heart [10, 12]: (67.76) µg/ml
- Calculated drug concentration in kidney cortex [10, 12]: (20.52) µg/ml
- Calculated drug concentration in kidney medulla [10, 12]: (617.02) µg/ml
- Calculated drug concentration in liver [10, 12]: (36.14) µg/ml
- Calculated drug concentration in lung [10, 12]: (35.03) µg/ml
- Calculated drug concentration in plasma [10, 12]: (22.03) µg/ml
- Calculated drug concentration in heart [10, 13]: (61.50) µg/ml
- Calculated drug concentration in kidney cortex [10, 13]: (16.59) µg/ml
- Calculated drug concentration in kidney medulla [10, 13]: (474.39) µg/ml
- Calculated drug concentration in liver [10, 13]: (26.96) µg/ml
- Calculated drug concentration in lung [10, 13]: (26.48) µg/ml
- Calculated drug concentration in plasma [10, 13]: (14.59) µg/ml
- Calculated drug concentration in heart [10, 14]: (57.59) µg/ml
- Calculated drug concentration in kidney cortex [10, 14]: (12.55) µg/ml
- Calculated drug concentration in kidney medulla [10, 14]: (343.00) µg/ml
- Calculated drug concentration in liver [10, 14]: (21.98) µg/ml
- Calculated drug concentration in lung [10, 14]: (22.17) µg/ml
- Calculated drug concentration in plasma [10, 14]: (11.25) µg/ml
- Calculated drug concentration in heart [10, 15]: (59.49) µg/ml
- Calculated drug concentration in kidney cortex [10, 15]: (9.93) µg/ml
- Calculated drug concentration in kidney medulla [10, 15]: (229.44) µg/ml
- Calculated drug concentration in liver [10, 15]: (19.19) µg/ml
- Calculated drug concentration in lung [10, 15]: (18.58) µg/ml
- Calculated drug concentration in plasma [10, 15]: (9.04) µg/ml
- Concentration in heart ([10]; 15 min after administration): 0.0199 %ID/cc
- Concentration in kidney cortex ([10]; 15 min after administration): 0.0060 %ID/cc
- Concentration in kidney medulla ([10]; 15 min after administration): 0.1815 %ID/cc
- Concentration in liver ([10]; 15 min after administration): 0.0106 %ID/cc
- Concentration in lung ([10]; 15 min after administration): 0.0103 %ID/cc
- Concentration in plasma ([10]; 15 min after administration): 0.00648 %ID/cc
- Concentration in heart ([10]; 30 min after administration): 0.0181 %ID/cc
- Concentration in kidney cortex ([10]; 30 min after administration): 0.0049 %ID/cc
- Concentration in kidney medulla ([10]; 30 min after administration): 0.1395 %ID/cc
- Concentration in liver ([10]; 30 min after administration): 0.0079 %ID/cc
- Concentration in lung ([10]; 30 min after administration): 0.0078 %ID/cc
- Concentration in plasma ([10]; 30 min after administration): 0.00429 %ID/cc
- Concentration in heart ([10]; 60 min after administration): 0.0169 %ID/cc
- Concentration in kidney cortex ([10]; 60 min after administration): 0.0037 %ID/cc
- Concentration in kidney medulla ([10]; 60 min after administration): 0.1009 %ID/cc
- Concentration in liver ([10]; 60 min after administration): 0.0065 %ID/cc
- Concentration in lung ([10]; 60 min after administration): 0.0065 %ID/cc
- Concentration in plasma ([10]; 60 min after administration): 0.00331 %ID/cc
- Concentration in heart ([10]; 90 min after administration): 0.0175 %ID/cc
- Concentration in kidney cortex ([10]; 90 min after administration): 0.0029 %ID/cc
- Concentration in kidney medulla ([10]; 90 min after administration): 0.0675 %ID/cc
- Concentration in liver ([10]; 90 min after administration): 0.0056 %ID/cc
- Concentration in lung ([10]; 90 min after administration): 0.0055 %ID/cc
- Concentration in plasma ([10]; 90 min after administration): 0.00266 %ID/cc

Compound: CO[C@H]1/C=C/O[C@@]2(C)Oc3c(C)c(O)c4cc(c(/C=N/N5CCN([11CH3])CC5)c(O)c4c3C2=O)NC(=O)/C(C)=C\C=C\C(C)[C@H](O)[C@@H](C)[C@@H](O)[C@@H](C)[C@H](OC(C)=O)[C@@H]1C (stereo partly shown) [[^11C]RIF]
- Estimated concentration in whole brain, C30min [6, 16]: 1.09 µg/mL
- Estimated concentration in whole brain, C60min [6, 16]: 0.912 µg/mL
- Estimated concentration in whole brain, C90min [6, 16]: 1.21 µg/mL
- Concentration in whole brain, C30min ([6]; i.v.): 0.000642 %ID/cc
- Concentration in whole brain, C60min ([6]; i.v.): 0.000536 %ID/cc
- Concentration in whole brain, C90min ([6]; i.v.): 0.00071 %ID/cc
- Calculated drug concentration in gallbladder [10, 17]: (121.40) µg/ml
- Calculated drug concentration in heart [10, 17]: (7.28) µg/ml
- Calculated drug concentration in kidney cortex [10, 17]: (15.79) µg/ml
- Calculated drug concentration in kidney medulla [10, 17]: (36.39) µg/ml
- Calculated drug concentration in liver [10, 17]: (258.98) µg/ml
- Calculated drug concentration in lung [10, 17]: (5.03) µg/ml
- Calculated drug concentration in plasma [10, 17]: (2.81) µg/ml
- Calculated drug concentration in gallbladder [10, 18]: (586.34) µg/ml
- Calculated drug concentration in heart [10, 18]: (5.28) µg/ml
- Calculated drug concentration in kidney cortex [10, 18]: (6.34) µg/ml
- Calculated drug concentration in kidney medulla [10, 18]: (11.63) µg/ml
- Calculated drug concentration in liver [10, 18]: (276.12) µg/ml
- Calculated drug concentration in lung [10, 18]: (2.83) µg/ml
- Calculated drug concentration in plasma [10, 18]: (1.50) µg/ml
- Calculated drug concentration in gallbladder [10, 19]: (983.24) µg/ml
- Calculated drug concentration in heart [10, 19]: (1.93) µg/ml
- Calculated drug concentration in kidney cortex [10, 19]: (0.43) µg/ml
- Calculated drug concentration in kidney medulla [10, 19]: (6.73) µg/ml
- Calculated drug concentration in liver [10, 19]: (288.05) µg/ml
- Calculated drug concentration in lung [10, 19]: (2.53) µg/ml
- Calculated drug concentration in plasma [10, 19]: (1.14) µg/ml
- Calculated drug concentration in gallbladder [10, 20]: (1009.99) µg/ml
- Calculated drug concentration in heart [10, 20]: (6.80) µg/ml
- Calculated drug concentration in kidney cortex [10, 20]: (8.19) µg/ml
- Calculated drug concentration in kidney medulla [10, 20]: (9.44) µg/ml
- Calculated drug concentration in liver [10, 20]: (299.73) µg/ml
- Calculated drug concentration in plasma [10, 20]: (1.16) µg/ml
- Concentration in gallbladder ([10]; 15 min after administration): 0.0714 %ID/cc
- Concentration in heart ([10]; 15 min after administration): 0.0043 %ID/cc
- Concentration in kidney cortex ([10]; 15 min after administration): 0.0093 %ID/cc
- Concentration in kidney medulla ([10]; 15 min after administration): 0.0214 %ID/cc
- Concentration in liver ([10]; 15 min after administration): 0.1523 %ID/cc
- Concentration in lung ([10]; 15 min after administration): 0.003 %ID/cc
- Concentration in plasma ([10]; 15 min after administration): 0.00165 %ID/cc
- Concentration in gallbladder ([10]; 30 min after administration): 0.3449 %ID/cc
- Concentration in heart ([10]; 30 min after administration): 0.0031 %ID/cc
- Concentration in kidney cortex ([10]; 30 min after administration): 0.0037 %ID/cc
- Concentration in kidney medulla ([10]; 30 min after administration): 0.0068 %ID/cc
- Concentration in liver ([10]; 30 min after administration): 0.1624 %ID/cc
- Concentration in lung ([10]; 30 min after administration): 0.0017 %ID/cc
- Concentration in plasma ([10]; 30 min after administration): 0.00088 %ID/cc
- Concentration in gallbladder ([10]; 60 min after administration): 0.5784 %ID/cc
- Concentration in heart ([10]; 60 min after administration): 0.0011 %ID/cc
- Concentration in kidney cortex ([10]; 60 min after administration): 0.0003 %ID/cc
- Concentration in kidney medulla ([10]; 60 min after administration): 0.004 %ID/cc
- Concentration in liver ([10]; 60 min after administration): 0.1694 %ID/cc
- Concentration in lung ([10]; 60 min after administration): 0.0015 %ID/cc
- Concentration in plasma ([10]; 60 min after administration): 0.00067 %ID/cc
- Concentration in gallbladder ([10]; 90 min after administration): 0.5941 %ID/cc
- Concentration in heart ([10]; 90 min after administration): 0.004 %ID/cc
- Concentration in kidney cortex ([10]; 90 min after administration): 0.0048 %ID/cc
- Concentration in kidney medulla ([10]; 90 min after administration): 0.0056 %ID/cc
- Concentration in liver ([10]; 90 min after administration): 0.1763 %ID/cc
- Concentration in plasma ([10]; 90 min after administration): 0.00068 %ID/cc
